# Results as given in patent US9708321B2, “Spiro-quinazolinone derivatives and their use as positive allosteric modulators of mGluR4” (Merck Patent GmbH, priority 2013, dated 2017).
# pEC50: −log10 of the molar value.
# Target: T1, hmGluR4 (Homo sapiens, UniProt Q14833)
# T1 construct: host or cells: HEK293T
# Test: HEK-293 mGluR4 cells cAMP assay with EC20 L-Glutamate (HTRF)
# Assay type: cell-based
# Conditions: positive allosteric activity at EC20 L-Glutamate, 10 μM Forskolin, HEK293T mGluR4 cells, cAMP HTRF; read-out: hrmGluR4/HEK293T-hmGluR4 (EC50)
# In short: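 PAM mode in mGluR4 HEK293T suspension cells, glutamine-starved overnight; 10 μM forskolin (final) with EC20 L-glutamate (2.3 μM), 2000 cells/well, 30 min at 37 °C. cAMP measured by two-step HTRF after 60 min at room temperature. Basal control EC20 glutamate; EC100 400 μM glutamate (2×).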
# T1 sequence (Q14833 33-912): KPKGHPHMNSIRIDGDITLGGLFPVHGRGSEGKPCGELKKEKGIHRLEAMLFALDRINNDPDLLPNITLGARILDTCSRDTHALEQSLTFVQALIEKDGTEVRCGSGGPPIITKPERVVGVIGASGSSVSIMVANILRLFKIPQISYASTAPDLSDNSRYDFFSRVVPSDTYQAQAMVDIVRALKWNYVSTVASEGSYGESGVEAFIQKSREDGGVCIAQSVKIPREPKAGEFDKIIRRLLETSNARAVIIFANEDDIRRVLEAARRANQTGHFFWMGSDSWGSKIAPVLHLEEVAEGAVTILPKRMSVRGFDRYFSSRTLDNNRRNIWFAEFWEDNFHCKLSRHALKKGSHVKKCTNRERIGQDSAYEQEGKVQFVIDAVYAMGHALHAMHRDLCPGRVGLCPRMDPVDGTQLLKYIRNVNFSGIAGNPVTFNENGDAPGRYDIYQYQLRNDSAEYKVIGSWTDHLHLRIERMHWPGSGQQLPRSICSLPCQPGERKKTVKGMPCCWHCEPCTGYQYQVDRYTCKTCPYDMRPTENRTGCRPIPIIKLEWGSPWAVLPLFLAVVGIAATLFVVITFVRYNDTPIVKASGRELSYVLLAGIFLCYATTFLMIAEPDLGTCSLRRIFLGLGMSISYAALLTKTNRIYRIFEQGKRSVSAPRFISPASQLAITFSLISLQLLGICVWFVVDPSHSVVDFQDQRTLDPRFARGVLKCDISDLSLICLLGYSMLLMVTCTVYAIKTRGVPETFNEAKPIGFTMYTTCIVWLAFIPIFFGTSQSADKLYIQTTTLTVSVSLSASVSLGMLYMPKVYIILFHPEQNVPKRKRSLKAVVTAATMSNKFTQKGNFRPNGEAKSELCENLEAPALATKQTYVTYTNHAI
row,Compound,pEC50
1,"COc1ccc(N2C(=O)c3ccc(Cl)cc3NC23CCN(Cc2ccccc2Cl)CC3)cc1 [Compound 62, 7′-Chloro-1-(2-chlorobenzyl)-3′-(4-methoxyphenyl)-1′H-spiro[piperidine-4,2′-quinazolin]-4′(3′H)-one]",> 6.00
2,"CCc1ccc2c(c1)NC1(CCN(Cc3ccc(F)c(F)c3)CC1)N(c1ccc(OC)cc1)C2=O [Compound 63, 1-(3,4-Difluorobenzyl)-7′-ethyl-3′-(4-methoxyphenyl)-1′H-spiro[piperidine-4,2′-quinazolin]-4′(3′H)-one]",> 6.00
3,"O=C1c2ccc(F)cc2NC2(CCN(Cc3ccc(F)c(F)c3)CC2)N1c1ccc(Cl)cc1 [Compound 64, 3′-(4-Chlorophenyl)-1-(3,4-difluorobenzyl)-7′-fluoro-1′H-spiro[piperidine-4,2′-quinazolin]-4′(3′H)-one]",> 6.00
4,"COc1ccc(N2C(=O)c3ccccc3NC23CN(Cc2ccccc2OC(F)(F)F)C3)cc1 [Compound 65, 3′-(4-Methoxyphenyl)-1-(2-(trifluoromethoxy)benzyl)-1′H-spiro[azetidine-3,2′-quinazolin]-4′(3′H)-one]",> 6.00
5,"COc1ccc(N2C(=O)c3ccccc3NC23CCN(Cc2ccccc2C(F)(F)F)CC3)cc1 [Compound 66, 3′-(4-Methoxyphenyl)-1-(2-(trifluoromethyl)benzyl)-1′H-spiro[piperidine-4,2′-quinazolin]-4′(3′H)-one]",5.00 to 6.00
6,"COc1ccc(N2C(=O)c3ccccc3NC23CCN(Cc2ccccc2OC(F)(F)F)CC3)cc1 [Compound 67, 3′-(4-Methoxyphenyl)-1-(2-(trifluoromethoxy)benzyl)-1′H-spiro[piperidine-4,2′-quinazolin]-4′(3′H)-one]",5.00 to 6.00
7,"COc1ccc(N2C(=O)c3ccc(OC)cc3NC23CCN(Cc2cccc(F)c2)CC3)cc1 [Compound 68, 1-(3-Fluorobenzyl)-7′-methoxy-3′-(4-methoxyphenyl)-1′H-spiro[piperidine-4,2′-quinazolin]-4′(3′H)-one]",5.00 to 6.00
8,"O=C1c2ccc(F)cc2NC2(CCN(Cc3ccc(F)c(F)c3)CC2)N1c1ccc(OC(F)(F)F)cc1 [Compound 69, 1-(3,4-Difluorobenzyl)-7′-fluoro-3′-(4-(trifluoromethoxy)phenyl)-1′H-spiro[piperidine-4,2′-quinazolin]-4′(3′H)-one]",5.00 to 6.00
9,"O=C1c2ccc(F)cc2NC2(CN(Cc3ccccc3Cl)C2)N1c1ccc(OC(F)(F)F)cc1 [Compound 70, 1-(2-Chlorobenzyl)-7′-fluoro-3′-(4-(trifluoromethoxy)phenyl)-1′H-spiro[azetidine-3,2′-quinazolin]-4′(3′H)-one]",5.00 to 6.00
10,"O=C1c2ccc(Br)cc2NC2(CCN(Cc3ccccc3)CC2)N1c1ccc(Cl)cc1 [Compound 71, 1-Benzyl-7′-bromo-3′-(4-chlorophenyl)-1′H-spiro[piperidine-4,2′-quinazolin]-4′(3′H)-one]",5.00 to 6.00
11,"COc1ccc(N2C(=O)c3ccccc3NC23CN(Cc2ccc(C)cc2)C3)cc1 [Compound 72, 3′-(4-Methoxyphenyl)-1-(4-methylbenzyl)-1′H-spiro[azetidine-3,2′-quinazolin]-4′(3′H)-one]",5.00 to 6.00
12,"COc1ccc(N2C(=O)c3ccc(-c4ccccn4)cc3NC23CCN(Cc2ccc(F)c(F)c2)CC3)cc1 [Compound 73, 1-(3,4-Difluorobenzyl)-3′-(4-methoxyphenyl)-7′-(pyridin-2-yl)-1′H-spiro[piperidine-4,2′-quinazolin]-4′(3′H)-one]",5.00 to 6.00
13,"CN(C)Cc1ccc(-c2ccc3c(c2)NC2(CCN(Cc4ccc(F)c(F)c4)CC2)N(c2ccc(OC(F)(F)F)cc2)C3=O)o1 [Compound 74, 1-(3,4-Difluorobenzyl)-7′-(5-((dimethylamino)methyl)furan-2-yl)-3′-(4-(trifluoromethoxy)phenyl)-1′H-spiro[piperidine-4,2′-quinazolin]-4′(3′H)-one]",5.00 to 6.00
14,"COc1ccc(N2C(=O)c3ccc(Cl)cc3NC23CCN(Cc2cccc(C#N)c2)CC3)cc1 [Compound 75, 3-((7′-Chloro-3′-(4-methoxyphenyl)-4′-oxo-3′,4′-dihydro-1′H-spiro[piperidine-4,2′-quinazolin]-1-yl)methyl)benzonitrile]",5.00 to 6.00
15,"COc1ccc(N2C(=O)c3ccccc3NC23CN(Cc2cccc(Cl)c2)C3)cc1 [Compound 76, 1-(3-Chlorobenzyl)-3′-(4-methoxyphenyl)-1′H-spiro[azetidine-3,2′-quinazolin]-4′(3′H)-one]",5.00 to 6.00
16,"CC(=O)c1ccc2c(c1)NC1(CCN(Cc3ccc(F)c(F)c3)CC1)N(c1ccc(OC(F)(F)F)cc1)C2=O [Compound 77, 7′-Acetyl-1-(3,4-difluorobenzyl)-3′-(4-(trifluoromethoxy)phenyl)-1′H-spiro[piperidine-4,2′-quinazolin]-4′(3′H)-one]",5.00 to 6.00
17,"O=C1c2ccc(F)cc2NC2(CN(C(c3ccc(F)c(F)c3)C(F)(F)F)C2)N1c1ccc(OC(F)(F)F)cc1 (stereo not drawn) [Compound 78, 1-(1-(3,4-Difluorophenyl)-2,2,2-trifluoroethyl)-7′-fluoro-3′-(4-(trifluoromethoxy)phenyl)-1′H-spiro[azetidine-3,2′-quinazolin]-4′(3′H)-one]",5.00 to 6.00

row,Compound,pEC50
1,"N#Cc1ccc2c(c1)NC1(CCN(Cc3ccc(F)c(F)c3)CC1)N(c1ccc(OC(F)(F)F)cc1)C2=O [Compound 79, 1-(3,4-Difluorobenzyl)-4′-oxo-3′-(4-(trifluoromethoxy)phenyl)-3′,4′-dihydro-1′H-spiro[piperidine-4,2′-quinazoline]-7′-carbonitrile]",5.00 to 6.00
2,"COc1ccc(N2C(=O)c3ccccc3NC23CCN(Cc2cc(F)cc(F)c2)CC3)cc1 [Compound 80, 1-(3,5-Difluorobenzyl)-3′-(4-methoxyphenyl)-1′H-spiro[piperidine-4,2′-quinazolin]-4′(3′H)-one]",5.00 to 6.00
3,"COc1ccc(N2C(=O)c3ccccc3NC23CN(Cc2ccccc2C(F)(F)F)C3)cc1 [Compound 81, 3′-(4-Methoxyphenyl)-1-(2-(trifluoromethyl)benzyl)-1′H-spiro[azetidine-3,2′-quinazolin]-4′(3′H)-one]",5.00 to 6.00
4,"CC(c1ccc(F)cc1)N1CC2(C1)Nc1cc(F)ccc1C(=O)N2c1ccc(OC(F)(F)F)cc1 (stereo not drawn) [Compound 82, 7′-Fluoro-1-(1-(4-fluorophenyl)ethyl)-3′-(4-(trifluoromethoxy)phenyl)-1′H-spiro[azetidine-3,2′-quinazolin]-4′(3′H)-one]",5.00 to 6.00
5,"COc1ccc(N2C(=O)c3ccc(N4CCCCC4)cc3NC23CCN(Cc2ccc(F)c(F)c2)CC3)cc1 [Compound 83, 1-(3,4-Difluorobenzyl)-3′-(4-methoxyphenyl)-7′-(piperidin-1-yl)-1′H-spiro[piperidine-4,2′-quinazolin]-4′(3′H)-one]",5.00 to 6.00
6,"COc1ccc(N2C(=O)c3ccccc3NC23CN(Cc2ccccc2F)C3)cc1 [Compound 84, 1-(2-Fluorobenzyl)-3′-(4-methoxyphenyl)-1′H-spiro[azetidine-3,2′-quinazolin]-4′(3′H)-one]",5.00 to 6.00
7,"COc1ccc(N2C(=O)c3ccccc3NC23CN(Cc2ccc(Cl)cc2)C3)cc1 [Compound 85, 1-(4-Chlorobenzyl)-3′-(4-methoxyphenyl)-1′H-spiro[azetidine-3,2′-quinazolin]-4′(3′H)-one]",5.00 to 6.00
8,"COc1ccc(N2C(=O)c3ccccc3NC23CN(Cc2cccc4ccccc24)C3)cc1 [Compound 86, 3′-(4-Methoxyphenyl)-1-(naphthalen-1-ylmethyl)-1′H-spiro[azetidine-3,2′-quinazolin]-4′(3′H)-one]",5.00 to 6.00
9,"CCOC(=O)c1ccc2c(c1)NC1(CN(C(C)c3ccc(F)cc3)C1)N(c1ccc(OC(F)(F)F)cc1)C2=O (stereo not drawn) [Compound 87, Ethyl 1-(1-(4-fluorophenyl)ethyl)-4′-oxo-3′-(4-(trifluoromethoxy)phenyl)-3′,4′-dihydro-1′H-spiro[azetidine-3,2′-quinazoline]-7′-carboxylate]",5.00 to 6.00
10,"COc1ccc(N2C(=O)c3ccccc3NC23CCC(NC(=O)OC(C)(C)C)CC3)cc1 (stereo not drawn) [Compound 88, tert-Butyl (3′-(4-methoxyphenyl)-4′-oxo-3′,4′-dihydro-1′H-spiro[cyclohexane-1,2′-quinazolin]-4-yl)carbamate]",5.00 to 6.00
11,"COc1ccc(N2C(=O)c3ccccc3NC23CN(Cc2cccc(C)c2)C3)cc1 [Compound 89, 3′-(4-Methoxyphenyl)-1-(3-methylbenzyl)-1′H-spiro[azetidine-3,2′-quinazolin]-4′(3′H)-one]",5.00 to 6.00
12,"COc1ccc(N2C(=O)c3ccccc3NC23CN(Cc2ccc4ccccc4c2)C3)cc1 [Compound 90, 3′-(4-Methoxyphenyl)-1-(naphthalen-2-ylmethyl)-1′H-spiro[azetidine-3,2′-quinazolin]-4′(3′H)-one]",5.00 to 6.00
13,"N#Cc1cccc(CN2CC3(C2)Nc2cc(C(F)(F)F)ccc2C(=O)N3c2ccc(OC(F)(F)F)cc2)c1 [Compound 91, 3-((4′-Oxo-3′-(4-(trifluoromethoxy)phenyl)-7′-(trifluoromethyl)-3′,4′-dihydro-1′H-spiro[azetidine-3,2′-quinazolin]-1-yl)methyl)benzonitrile]",5.00 to 6.00
14,"COc1ccc(N2C(=O)c3ccccc3NC23CN(Cc2ccccc2)C3)cc1 [Compound 92, 1-Benzyl-3′-(4-methoxyphenyl)-1′H-spiro[azetidine-3,2′-quinazolin]-4′(3′H)-one]",5.00 to 6.00
15,"COc1ccc(N2C(=O)c3ccccc3NC23CN(Cc2cccc(F)c2)C3)cc1 [Compound 93, 1-(3-Fluorobenzyl)-3′-(4-methoxyphenyl)-1′H-spiro[azetidine-3,2′-quinazolin]-4′(3′H)-one]",5.00 to 6.00
16,"COc1ccc(N2C(=O)c3ccccc3NC23CN(Cc2ccccc2C)C3)cc1 [Compound 94, 3′-(4-Methoxyphenyl)-1-(2-methylbenzyl)-1′H-spiro[azetidine-3,2′-quinazolin]-4′(3′H)-one]",5.00 to 6.00
